A short description of data set [1]: Stability when blended with excipients. Format: physicochemical. The following applies: four excipients (gelatin, HPMC, wet granulation mixture, dry blended mixture), 50° C./75% RH.
Data set [2] in a line: Hygroscopicity, water sorption-desorption isotherm (DVS). In kind it is physicochemical. The source says:
Crystalline form F is non-hygroscopic.

The nature of data set [3]: Intrinsic dissolution rate. Format: physicochemical.
A short description of data set [4]: Solubility in aqueous buffers and bio-relevant media. The following applies: the salt dissociates.
A short description of data set [5]: Thermal stability of the crystalline form on heating and cooling (XRPD). In kind it is physicochemical. The following applies: heating to 220° C. (melt) then cooling to 30° C.
A short description of data set [6]: Physical stability on compression (XRPD). Format: physicochemical. The following applies: 5 minutes at 0.5 ton, 0.8 cm diameter disc. The procedure:
The crystallinity of form F was evaluated by XRPD after compression for 5 minutes at 0.5 ton with 0.8 cm diameter disc.

Data set [7] in a line: Granulation simulation experiments (XRPD, DSC). The following applies: ground at 25° C. Format: physicochemical. The method, then:
The physical stability of crystalline form F was also evaluated in granulation simulation experiments. In these experiments granulating solvent was added dropwise to the crystalline form F until the solid is wetted sufficiently. The mixture was then ground in a mortar/pestle at room temperature (25° C. for 2-3 minutes) between each addition. The crystallinity of the material (post-grinding) was re-evaluated by XRPD and DSC.

Data set [8] is described as follows: Phase change on exposure to humidity. In kind it is physicochemical.
The conditions of data set [9]: 1 week.
For data set [10] the following is noted: 1 week, 0.1 %, pH 1.2.
A further data set is described as follows: physchem. The following applies: aqueous buffer.

Each structure is given as a SMILES string. In brackets after ≈: the same amount, converted by molar mass.

The solubility is how much of the substance goes into solution per volume. Read a low solubility as a poorly soluble substance.

In the case of `Nc1nc(-n2cccn2)nc(-n2cccn2)c1Br` [Form C, 5-bromo-2,6-di(1H-pyrazol-1-yl)pyrimidin-4-amine], the “degradation when blended with excipients” value in [1] is recorded as “about 1%”. Moreover, the hygroscopicity entry in [2] (relative humidity above 70%) is “very hygroscopic”. Besides, the results for the intrinsic dissolution in data set [3] (0.01N HCl pH=2), in data set [3] (acetate buffer pH 4.7) and in data set [3] (phosphate buffer pH 6.8) were 0.0592 mg/cm^2/min, 0.0264 mg/cm^2/min and 0.0277 mg/cm^2/min, respectively. In [4], the “solubility compared with free form F” value is given as “does not show any better solubility than the free form F”.
For `Nc1nc(-n2cccn2)nc(-n2cccn2)c1Br` [Form F, 5-bromo-2,6-di(1H-pyrazol-1-yl)pyrimidin-4-amine], the “crystalline form after heating and cooling” value in [5] is reported as “remains unchanged”. Further, the “form change after compression” value in [6] is recorded as “no form change”. Besides, the “form change after granulation simulation” value in [7] (ethanol as granulation solvent) and in [7] (water as granulation solvent) was “no form change” each time. Moreover, the hygroscopicity entry in data set [2] (DVS, 25° C.) was “non-hygroscopic”. The moisture absorbed entry in data set [2] (DVS, up to 90% relative humidity, 25° C.) was “less than 0.2%”. Moreover, the “phase change on exposure to humidity” value in [8] is “little to no phase change”. Moreover, the intrinsic dissolution came out at 0.0115 mg/cm^2/min in data set [3] (0.01N HCl pH=2, listed as form F); 0.0085 mg/cm^2/min in [3] (acetate buffer pH 4.7, listed as form F); 0.0084 mg/cm^2/min in [3] (phosphate buffer pH 6.8, listed as form F). Also, the degradation in bulk result in data set [9] is given as “less than 1%”. The “degradation in buffer solution” value in data set [10] is on record as 1%. Further, the “degradation in buffer solutions” value in data set [10] is given as “less than 0.5%”. This compound returned a solubility in the data set “physchem” of about 100 µg/mL (≈ 327 µM).

The record behind these values is patent US10933064B2, “Crystalline forms of 5-bromo-2,6-di(1H-pyrazol-1-yl)pyrimidin-4-amine and new salts” (Novartis AG, priority 2017, dated 2021).
